Test results taken from US20230400471A1, “SYSTEMS, COMPOSITIONS AND METHODS OF DETERMINING VIABILITY OF EMBRYOS USING THE SAME” (BioIncept, LLC, priority 2020, published 2023).

Tests used:
[1] = tested on: rabbit anti-PIF polyclonal antibody; assay: PIF colorimetric ELISA using rabbit polyclonal antibody, epitope mapping with PIF peptides of various length; type: binding; settings: for % recovery by Rabbit Polyclonal Antibody: representative value of three repeats; for recovery by PIF colorimetric ELISA using rabbit polyclonal antibody: Table 3, spike concentration not given
Procedure: (§1) To study PIF peptide and its derivatives of different length for binding to rabbit anti-PIF monoclonal antibody and rabbit anti-PIF polyclonal antibody, PIF peptides of various lengths as listed in Table 2 was synthesized, reconstituted in PBS and two different concentrations were tested by respective colorimetric ELISA following standard protocol. The standards were run in duplicate and the samples were run in triplicate and repeated three times.

[2] = tested on: rabbit anti-PIF monoclonal antibody; assay: PIF colorimetric ELISA using rabbit anti-PIF monoclonal antibody, epitope mapping with PIF peptides of various length; type: binding; settings: for % Recovery by Rabbit Monoclonal Antibody: representative value of three repeats; for recovery by PIF colorimetric ELISA using rabbit anti-PIF monoclonal antibody: Table 3, spike concentration not given
Procedure: as §1

Row | Substance | % recovery by Rabbit Polyclonal Antibody ([1]; spike concentration 100 ng/ml) [%] | % recovery by Rabbit Polyclonal Antibody ([1]; spike concentration 200 ng/ml) [%] | % Recovery by Rabbit Monoclonal Antibody ([2]; spike concentration 100 ng/ml) [%] | % Recovery by Rabbit Monoclonal Antibody ([2]; spike concentration 200 ng/ml) [%] | recovery by PIF colorimetric ELISA using rabbit polyclonal antibody [1] | recovery by PIF colorimetric ELISA using rabbit anti-PIF monoclonal antibody [2] | % recovery by Rabbit Polyclonal Antibody ([1]; spike concentration 500 ng/ml) [%] | % recovery by Rabbit Polyclonal Antibody ([1]; spike concentration 1000 ng/ml) [%] | % Recovery by Rabbit Monoclonal Antibody ([2]; spike concentration 500 ng/ml) [%] | % Recovery by Rabbit Monoclonal Antibody ([2]; spike concentration 1000 ng/ml) [%]
1 | P1-7: PIF peptide, amino acid locations 1-7 (M V R I K P G) (MVRIKPG) [Clone P1-7] | 0 | 0 | 0 | 0 |  |  |  |  |  | 
2 | P8-13: PIF peptide, amino acid locations 8-13 (S A N K P S) (SANKPS) [Clone P8-13] | 0 | 0 | 0 | 0 |  |  |  |  |  | 
3 | P10-15: PIF peptide, amino acid locations 10-15 (N K P S D D) (NKPSDD) [Clone P10-15] | 0 | 0 | 0 | 0 |  |  |  |  |  | 
4 | P1-14: PIF peptide, amino acid locations 1-14 (M V R I K P G S A N K P S D) (MVRIKPGSANKPSD) [Clone P1-14] | 44.6 | 30.0 | 3.8 | 3.8 | about 40% | about 3.8% |  |  |  | 
5 | P5-10: PIF peptide, amino acid locations 5-10 (K P G S A N) (KPGSAN) [Clone P5-10] | 0 | 0 | 0 | 0 |  |  |  |  |  | 
6 | MVRIKPGSANKPSDD [Clone P1-15] |  |  |  |  | 100% | 100% | 115.0 | 101.4 | 100.0 | 100.0
